Assay results reported in ChEMBL document CHEMBL4196225, “Precedence and Promise of Covalent Inhibitors of EGFR and KRAS for Patients with Non-Small-Cell Lung Cancer” (ACS Med Chem Lett, 2018).
pKi: −log10 of the molar value.

Assays:
[1] = system: GTPase KRas (Homo sapiens), P01116 [G12C]; assay: Binding affinity to hexahistidine-tagged recombinant human KRas G12C mutant expressed in Escherichia coli BL21 (DE3) assessed as first-order rate constant in presence of GDP
[2] = system: GTPase KRas (Homo sapiens), P01116 [G12C]; assay: Ratio of Kinact to Ki for hexahistidine-tagged recombinant human KRas G12C mutant expressed in Escherichia coli BL21 (DE3)
GTPase KRas = GTPase KRas (Homo sapiens, UniProt P01116, G12C); assay: Binding affinity to hexahistidine-tagged recombinant human KRas G12C mutant expressed in Escherichia coli BL21 (DE3) in presence of GDP
Sequence of GTPase KRas (P01116 whole entry G12C): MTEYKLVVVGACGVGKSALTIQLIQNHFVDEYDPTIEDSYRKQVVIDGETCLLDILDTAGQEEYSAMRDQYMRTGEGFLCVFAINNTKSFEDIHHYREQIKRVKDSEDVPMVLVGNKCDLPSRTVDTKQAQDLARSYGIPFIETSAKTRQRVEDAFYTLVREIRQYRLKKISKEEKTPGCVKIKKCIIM

Sequence of GTPase KRas (Homo sapiens), P01116 [G12C] (P01116 whole entry G12C): as above

Kinact [1]: > 0.066 s⁻¹ | Ratio [2]: 1100 M⁻¹ s⁻¹ | pKi (GTPase KRas): < 4.19
SMILES: C=CC(=O)N1CCN(c2ncnc3c(F)c(-c4c(O)cccc4F)c(Cl)cc23)CC1 (atropisomer S)
